Patent US20260176289A1, “SMALL MOLECULE INHIBITORS OF KRAS PROTEINS” (Merck Sharp & Dohme LLC, priority 2022, published 2026)
Where two headings read alike, the source gives them in different places.

Experiments:
KRAS-WT = KRAS-WT (Homo sapiens, UniProt P01116); assay: SOS-catalyzed nucleotide exchange assay (Procedure A, TR-FRET), KRAS-WT; assay type: biochemical; settings: nucleotide exchange, read-out: KRAS WT GNE IC50
Outline: (§1)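 Compounds (10-point, 3-fold) were preincubated 60 min at room temperature with a biotinylated RAS/Bodipy-GDP/Tb-streptavidin TR-FRET complex. Exchange was started with human SOS plus 3 mM GTP. RAS/SOS: G12C 3/40 nM, WT 1/40 nM, NRAS 1.25/40 nM (60 min); G12V 1.25/160 nM (90 min). The 520/495 ratio was fit four-parameter.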

[1] = molecular target: KRAS-G12C (C51S/C80L/C118S) (Homo sapiens, UniProt P01116, C118S/C51S/C80L/G12C); assay: SOS-catalyzed nucleotide exchange assay (Procedure A, TR-FRET), KRAS-G12C; assay type: biochemical; settings: nucleotide exchange, Procedure A; read-out: KRAS G12C GNE IC50
Outline: as §1

KRAS-G12D = KRAS-G12D (Homo sapiens, UniProt P01116, G12D); assay: SOS-catalyzed nucleotide exchange assay (Procedure A, TR-FRET), KRAS-G12D; assay type: biochemical; settings: nucleotide exchange, read-out: KRAS G12D GNE IC50
Outline: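 Signal ratio (520/495 nm, excitation 340 nm) reports Bodipy-GDP retention on biotinylated RAS after SOS-catalyzed exchange with 3 mM GTP. SOS was 40 nM, except 160 nM for G12V. Room-temperature exchange lasted 60 min (90 min for G12V), following a 60 min compound preincubation.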

KRAS-G12V = KRAS-G12V (Homo sapiens, UniProt P01116, G12V); assay: SOS-catalyzed nucleotide exchange assay (Procedure A, TR-FRET), KRAS-G12V; assay type: biochemical; settings: nucleotide exchange, read-out: KRAS G12V GNE IC50
Outline: as §1

KRAS-G13D = KRAS-G13D (Homo sapiens, UniProt P01116, G13D); assay: SOS-catalyzed nucleotide exchange assay (Procedure A, TR-FRET), KRAS-G13D; assay type: biochemical; settings: nucleotide exchange, Procedure A; read-out: KRAS G13D GNE IC50
MKN-1 cells = assay: Cellular phospho-ERK assay, MKN-1 cells (amplified wild-type KRAS); assay type: cell-based; settings: Homo sapiens, read-out: MKN1 pERK IC50
Outline: (§2)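 10k–15k cells/well, o/n attach; cpd 2 h, 37 °C, 10-pt 1:3 from 30 μM final; lyse with protease/phosphatase inhibitors 30 min RT; multiplex SureFire p-ERK + total ERK; IC50 via 4PL on ratio.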

AsPC-1 cells = assay: Cellular phospho-ERK assay, AsPC-1 cells (homozygous KRAS-G12D); assay type: cell-based; settings: Homo sapiens, ASPC1, 2 h, read-out: AsPC1 pERK IC50
Outline: as §2

SW620 cells = assay: Cellular phospho-ERK assay, SW620 cells (homozygous KRAS-G12V); assay type: cell-based; settings: Homo sapiens, read-out: SW620 pERK IC50
Outline: as §2

[2] = amplified wild-type KRAS, 2 hours
[3] = SW-620, 2 hours compound incubation

KRAS-G12C (C51S/C80L/C118S), sequence (P01116 with tags, fused parts or gaps isoform P01116-2 G12C/C51S/C80L/C118S): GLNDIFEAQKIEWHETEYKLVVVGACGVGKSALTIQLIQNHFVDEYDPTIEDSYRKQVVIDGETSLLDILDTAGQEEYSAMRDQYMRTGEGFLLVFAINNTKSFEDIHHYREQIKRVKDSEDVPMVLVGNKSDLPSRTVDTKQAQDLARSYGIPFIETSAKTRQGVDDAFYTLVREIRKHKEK
KRAS-G12D, sequence (P01116 with tags, fused parts or gaps isoform P01116-2 G12D): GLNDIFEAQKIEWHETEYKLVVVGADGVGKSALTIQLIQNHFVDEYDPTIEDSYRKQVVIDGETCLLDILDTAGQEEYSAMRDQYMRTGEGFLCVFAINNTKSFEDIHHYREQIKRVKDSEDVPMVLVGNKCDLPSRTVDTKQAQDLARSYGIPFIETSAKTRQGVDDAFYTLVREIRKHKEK
KRAS-WT, sequence (P01116 with tags, fused parts or gaps isoform P01116-2): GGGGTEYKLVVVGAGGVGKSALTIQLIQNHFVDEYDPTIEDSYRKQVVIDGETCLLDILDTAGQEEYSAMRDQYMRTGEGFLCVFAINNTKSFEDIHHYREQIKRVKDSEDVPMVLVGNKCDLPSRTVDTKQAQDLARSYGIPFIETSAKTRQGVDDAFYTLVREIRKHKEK
KRAS-G12V, sequence (P01116 with tags, fused parts or gaps isoform P01116-2 G12V): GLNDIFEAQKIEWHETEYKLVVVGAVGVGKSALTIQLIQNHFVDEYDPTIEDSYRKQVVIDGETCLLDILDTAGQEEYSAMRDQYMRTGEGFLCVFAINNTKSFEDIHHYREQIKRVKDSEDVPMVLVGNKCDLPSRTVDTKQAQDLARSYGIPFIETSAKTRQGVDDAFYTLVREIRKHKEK
KRAS-G13D, sequence (P01116 with tags, fused parts or gaps isoform P01116-2 G13D): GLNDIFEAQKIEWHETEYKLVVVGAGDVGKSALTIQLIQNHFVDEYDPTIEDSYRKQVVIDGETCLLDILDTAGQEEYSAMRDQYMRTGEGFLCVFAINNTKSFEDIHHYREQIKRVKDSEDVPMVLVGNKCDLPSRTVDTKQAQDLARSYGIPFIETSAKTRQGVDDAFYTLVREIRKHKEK

Structure (SMILES)	IC50 (KRAS-WT) [nM]	IC50 [1] [nM]	IC50 (KRAS-G12D) [nM]	IC50 (KRAS-G12V) [nM]	IC50 (KRAS-G13D) [nM]	IC50 (MKN-1 cells; [2]) [nM]	IC50 (AsPC-1 cells; KRAS-G12D, 2 hours) [nM]	IC50 (SW620 cells; SW-620, KRAS-G12V, 2 hours) [nM]	IC50 (MKN-1 cells; 2 hours compound incubation) [nM]	IC50 (AsPC-1 cells; 2 hours compound incubation) [nM]	IC50 (SW620 cells; [3]) [nM]
Cc1cc2[nH]ncc2c(-c2nccc3c2sc2nc(OC[C@@]45CCCN4C[C@H](F)C5)nc(N4CCOC[C@@](C)(O)C4)c23)c1C12CC(C1)C2 [Ex-43, (6S)-4-(8-(5-(bicyclo[1.1.1]pentan-1 yl)-6-methy1-1H-indazol-4-yl)-2-(((2R,7aS)-2-fluorotetrahydro-1H-pyrrolizin-7a(5H)-yl)methoxy)pyrido[4′,3′:4,5]thi-eno[2,3-d]pyrimidin-4-yl)-6-methyl-1,4-oxazepan-6-ol]	44.4	24.3	13.9	26.8	17.5	145	130	62			
C[C@@]1(O)COCCN(c2nc(OC[C@@]34CCCN3C[C@H](F)C4)nc3sc4c(-c5c(C6(F)CC6)c(Cl)cc6[nH]ncc56)nccc4c23)C1 [Ex-52, (6S)-4-(8-(6-chloro-5-(1-fluorocyclopropyl)-1H-indazol-4-yl)-2-(((2R,7aS)-2-fluorotetrahydro-1H-pyrrolizin-7a(5H)-yl)methoxy)pyrido[4′,3′-4,5]thi-eno[2,3-d]pyrimidin-4-yl)-6-methyl-1,4-oxazepan-6-ol]	11.9	30.1	4.05	12.9	9.02	48.6	68.7	37.3			
C[C@@]1(O)COCCN(c2nc(OC[C@@]34CCCN3C/C(=C\F)C4)nc3sc4c(-c5c(C6(F)CC6)c(C(F)(F)F)cc6[nH]ncc56)nccc4c23)C1 [Ex-56, (6S)-4-(8-(5-(1-fluorocyclopropyl)-6-(trifluoromethyl)-1H-indazol-4-yl)-2-(((S,Z)-2-(fluoromethylene)tetrahy-dro-1H-pyrrolizin-7a(5H)-yl)methoxy)pyrido[4′,3′:4,5]thi-eno[2,3-d]pyrimidin-4-yl)-6-methyl-1,4-oxazepan-6-ol]	26.5	128	9.15	32.6	22.6	45.6	48.9	57.5			
C=C(F)c1c(C(F)(F)F)cc2[nH]ncc2c1-c1nccc2c1sc1nc(OC[C@@]34CCCN3C[C@H](F)C4)nc(N3CCOC[C@@](C)(O)C3)c12 [Ex-58, (6S)-4-(2-(((2R,7aS)-2-fluorotetrahydro-1H-pyrrolizin-7a(5H)-yl)methoxy)-8-(5-(1-fluorovinyl)-6-(trifluoromethyl)-1H-indazol-4-yl)pyrido[4′,3′:4,5]thieno [2,3-d]pyrimidin-4-yl)-6-methyl-1,4-oxazepan-6-ol]	17.6	16.5	5.41	13.5	10.4	35.5	57.1	36.2			
C=C(C)c1c(C(F)(F)F)cc2[nH]ncc2c1-c1nccc2c1sc1nc(OCC34CCCN3CC(F)C4)nc(N3CCOCC(C)(O)C3)c12 [Ex-60, (6S)-4-(2-(((2R,7aS)-2-fluorotetrahydro-1H-pyrrolizin-7a(5H)-yl)methoxy)-8-(5-(prop-1-en-2-yl)-6-(trifluoromethyl)-1H-indazol-4-yl)pyrido[4′,3′:4,5]thieno [2,3-d]pyrimidin-4-y])-6-methyl-1,4-oxazepan-6-ol]	29	22.4	9.46	18.6	15.8	44.5	99.5	41.9			
C[C@@]1(O)COCCN(c2nc(OC[C@@]34CCCN3C[C@H](F)C4)nc3sc4c(-c5c(C6CCC6)c(Cl)cc6[nH]ncc56)nccc4c23)C1 [Ex-69, (6S)-4-(8-(6-chloro-5-cyclobutyl-1H-indazol-4-yl)-2-(((2R,7aS)-2-fluorotetrahydro-1H-pyrrolizin-7a(5H)-yl)methoxy)pyrido[4′,3′:4,5]thi-eno[2,3-d]pyrimidin-4-yl)-6-methyl-1,4-oxazepan-6-ol]	28.6	20.4	6.79	10.2	12.5	52.7	68.5	51.9			
C[C@@]1(O)COCCN(c2nc(OC[C@@]34CCCN3C[C@H](F)C4)nc3sc4c(-c5c(C6CC6)c(C(F)(F)F)cc6[nH]ncc56)nccc4c23)C1 [Ex-76, (6S)-4-(8-(5-cyclopropyl-6-(trifluoromethyl)-1H-indazol-4-yl)-2-(((2R,7aS)-2-fluorotetrahydro-1H-pyrrolizin-7a(5H)-yl)methoxy)pyrido[4′,3′:4,5]thi-eno[2,3-d]pyrimidin-4-yl)-6-methyl-1,4-oxazepan-6-ol]	8.47	55.8	5.46	20.4	7.22	28.1	24.1	18.5			
CN1CCC[C@H]1COc1nc(N2CCOC[C@@](C)(O)C2)c2c(n1)sc1c(-c3c(C4CC4)c(C(F)(F)F)cc4[nH]ncc34)nccc12 [Ex-79, (6S)-4-(8-(5-cyclopropyl-6-(trifluoromethyl)-1H-indazol-4-yl)-2-(((S)-1-methylpyrrolidin-2-yl)methoxy)pyrido[4′,3′:4.5]thi-eno[2,3-d]pyrimidin-4-yl)-6-methyl-1,4-oxazepan-6-ol]	8.2	57.9	5.84	10.8	27.9	16.2	23.2	8.94			
Cc1cc2[nH]ncc2c(-c2nccc3c2sc2nc(OC[C@@]45CCCN4C[C@H](F)C5)nc(N4CCOC[C@@](C)(O)C4)c23)c1C1CC1 [Ex-141, (6S)-4-(8-(5-cyclo-propyl-6-methyl-1H-indazol-4-yl)-2-(((2R,7aS)-2-fluoro-tetrahydro-1H-pyr-rolizin-7a(5H)-yl)-methoxy)pyrido [4′,3′:4,5]thieno[2,3-d]pyrimidin-4-yl)-6-methyl-1,4-oxaze-pan-6-ol]	18.1	87.7	7.5	16.5	14.4				53.1	38	131
C=C(C)c1c(Cl)cc2[nH]ncc2c1-c1nccc2c1sc1nc(OC[C@@]34CCCN3C[C@H](F)C4)nc(N3CCOC[C@@](C)(O)C3)c12 [Ex-142, (6S)-4-(8-(6-chloro-5-(prop-1-en-2-yl)-1H-indazol-4-yl)-2-(((2R,7aS)-2-fluoro-tetrahydro-1H-pyr-rolizin-7a(5H)-yl)-methoxy)pyrido [4′,3′:4,5]thieno[2,3-d]pyrimidin-4-yl)-6-methyl-1,4-oxaze-pan-6-ol]	49.2	34	19.2	29.3	31.1				120	82.1	96.7
C[C@@]1(O)COCCN(c2nc(OC[C@@]34CCCN3C[C@H](F)C4)nc3sc4c(-c5c(C6CC6)c(Cl)cc6[nH]ncc56)nccc4c23)C1 [Ex-144, (6S)-4-(8-(6-chloro-5-cyclopropyl-1H-indazol-4-yl)-2-(((2R,7aS)-2-fluoro-tetrahydro-1H-pyr-rolizin-7a(5H)-yl)-methoxy)pyrido [4′,3′:4,5]thieno[2,3-d]pyrimidin-4-yl)-6-methyl-1,4-oxaze-pan-6-ol]	14.6	46	6.2	14.3	10.7				53.2	41.7	73
